Measurements: ChEMBL document CHEMBL5046271, “Design, Synthesis, and Biological Evaluation of 2-Formyl Tetrahydronaphthyridine Urea Derivatives as New Selective Covalently Reversible FGFR4 Inhibitors” (J Med Chem, 2022)

Columns and labels:
[1] = molecular target: Fibroblast growth factor receptor 1 (Homo sapiens, UniProt P11362); assay: Inhibition of FGFR1 (unknown origin) using Tyr 04 peptide substrate measured after 2 hrs by FRET assay
[2] = molecular target: Fibroblast growth factor receptor 2 (Homo sapiens, UniProt P21802); assay: Inhibition of FGFR2 (unknown origin) using Tyr 04 peptide substrate measured after 2 hrs by FRET assay
Chain of Fibroblast growth factor receptor 2 (P21802 whole entry): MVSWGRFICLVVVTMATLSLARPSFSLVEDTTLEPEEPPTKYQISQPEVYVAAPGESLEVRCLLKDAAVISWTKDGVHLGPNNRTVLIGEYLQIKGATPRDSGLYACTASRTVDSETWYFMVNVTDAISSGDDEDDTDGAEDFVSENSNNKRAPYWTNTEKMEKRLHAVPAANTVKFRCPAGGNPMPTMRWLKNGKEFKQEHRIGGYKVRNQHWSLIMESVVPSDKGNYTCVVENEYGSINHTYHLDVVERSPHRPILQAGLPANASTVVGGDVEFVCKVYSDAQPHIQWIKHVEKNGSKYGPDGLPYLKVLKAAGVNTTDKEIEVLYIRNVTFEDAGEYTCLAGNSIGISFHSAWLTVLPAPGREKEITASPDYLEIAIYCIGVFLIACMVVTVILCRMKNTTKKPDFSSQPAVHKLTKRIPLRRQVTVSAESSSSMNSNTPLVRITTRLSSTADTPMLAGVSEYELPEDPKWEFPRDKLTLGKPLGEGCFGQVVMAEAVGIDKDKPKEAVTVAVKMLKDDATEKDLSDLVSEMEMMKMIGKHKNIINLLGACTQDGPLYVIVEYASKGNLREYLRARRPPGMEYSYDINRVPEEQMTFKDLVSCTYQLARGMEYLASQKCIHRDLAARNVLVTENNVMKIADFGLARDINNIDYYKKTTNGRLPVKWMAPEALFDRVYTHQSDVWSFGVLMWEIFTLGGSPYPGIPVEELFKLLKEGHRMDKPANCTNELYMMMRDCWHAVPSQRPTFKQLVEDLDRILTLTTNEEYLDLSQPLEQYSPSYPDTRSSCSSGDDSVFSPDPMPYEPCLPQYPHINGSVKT

[3] = molecular target: Fibroblast growth factor receptor 3 (Homo sapiens, UniProt P22607); assay: Inhibition of FGFR3 (unknown origin) using Tyr 04 peptide substrate measured after 2 hrs by FRET assay
Chain of Fibroblast growth factor receptor 3 (P22607 whole entry): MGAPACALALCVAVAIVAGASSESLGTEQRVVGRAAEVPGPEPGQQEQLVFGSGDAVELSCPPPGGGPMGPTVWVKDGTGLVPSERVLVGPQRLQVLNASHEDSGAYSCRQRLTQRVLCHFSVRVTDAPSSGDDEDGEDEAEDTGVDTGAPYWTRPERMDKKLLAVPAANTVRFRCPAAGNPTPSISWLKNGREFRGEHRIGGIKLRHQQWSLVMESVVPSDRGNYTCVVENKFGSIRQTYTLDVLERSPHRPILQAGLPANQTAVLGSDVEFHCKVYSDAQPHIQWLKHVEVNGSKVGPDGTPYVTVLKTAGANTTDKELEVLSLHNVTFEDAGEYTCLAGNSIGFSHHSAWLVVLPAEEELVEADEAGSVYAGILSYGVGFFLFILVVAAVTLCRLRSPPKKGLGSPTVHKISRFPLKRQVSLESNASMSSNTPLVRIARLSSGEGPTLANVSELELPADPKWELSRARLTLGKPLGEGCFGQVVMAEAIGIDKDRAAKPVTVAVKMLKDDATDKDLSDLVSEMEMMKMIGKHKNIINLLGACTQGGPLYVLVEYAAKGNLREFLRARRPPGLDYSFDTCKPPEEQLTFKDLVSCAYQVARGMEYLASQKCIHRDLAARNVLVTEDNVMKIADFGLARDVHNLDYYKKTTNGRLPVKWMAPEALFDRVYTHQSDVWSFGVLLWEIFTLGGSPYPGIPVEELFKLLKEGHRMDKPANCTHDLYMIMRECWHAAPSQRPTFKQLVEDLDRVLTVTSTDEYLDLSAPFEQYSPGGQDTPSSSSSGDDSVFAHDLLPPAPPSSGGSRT

Measured: IC50

Chain of Fibroblast growth factor receptor 1 (P11362 whole entry): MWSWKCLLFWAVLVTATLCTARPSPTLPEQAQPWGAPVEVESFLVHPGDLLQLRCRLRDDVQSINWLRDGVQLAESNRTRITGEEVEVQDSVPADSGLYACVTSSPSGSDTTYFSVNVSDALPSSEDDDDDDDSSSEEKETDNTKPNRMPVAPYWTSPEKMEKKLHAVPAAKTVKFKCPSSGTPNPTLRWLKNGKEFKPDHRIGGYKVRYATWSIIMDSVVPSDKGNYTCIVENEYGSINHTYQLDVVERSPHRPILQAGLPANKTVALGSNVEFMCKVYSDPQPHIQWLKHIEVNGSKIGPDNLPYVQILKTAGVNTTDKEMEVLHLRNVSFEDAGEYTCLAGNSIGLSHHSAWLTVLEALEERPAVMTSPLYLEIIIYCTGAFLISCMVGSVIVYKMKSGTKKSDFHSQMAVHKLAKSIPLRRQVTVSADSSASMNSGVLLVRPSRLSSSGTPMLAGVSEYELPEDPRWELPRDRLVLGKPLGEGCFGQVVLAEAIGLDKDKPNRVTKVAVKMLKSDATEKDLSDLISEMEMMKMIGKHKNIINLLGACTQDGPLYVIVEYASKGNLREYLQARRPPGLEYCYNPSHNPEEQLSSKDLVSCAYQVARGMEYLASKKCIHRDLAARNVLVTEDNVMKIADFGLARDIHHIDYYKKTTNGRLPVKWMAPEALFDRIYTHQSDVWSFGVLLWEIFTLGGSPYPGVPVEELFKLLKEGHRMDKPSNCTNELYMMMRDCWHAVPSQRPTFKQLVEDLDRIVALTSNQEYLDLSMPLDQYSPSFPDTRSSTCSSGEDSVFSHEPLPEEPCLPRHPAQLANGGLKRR

COC[C@H](C)Nc1cc(NC(=O)N2CCCc3ccc(C=O)nc32)ncc1C#Cc1cccnc1
> 10 µM: all assays above

COCCNc1cc(NC(=O)N2CCCc3ccc(C=O)nc32)ncc1C#Cc1cccnc1
> 10 µM: all assays above

CC(C)Oc1cc(NC(=O)N2CCCc3ccc(C=O)nc32)ncc1C#Cc1cccnc1
> 10 µM: all assays above

COC[C@@H](C)Nc1cc(NC(=O)N2CCCc3ccc(C=O)nc32)ncc1C#Cc1cccnc1
> 10 µM: all assays above

COCCOc1cc(NC(=O)N2CCCc3ccc(C=O)nc32)ncc1C#Cc1cccnc1
> 10 µM: all assays above

CC(C)Oc1cc(NC(=O)N2CCCc3ccc(C=O)nc32)ncc1C#Cc1ccccc1
> 10 µM: all assays above

COCCNc1cc(NC(=O)N2CCCc3ccc(C=O)nc32)ncc1C#N
> 10 µM: all assays above

COc1cccc(CCc2cnc(NC(=O)N3CCCc4ccc(C=O)nc43)cc2OC(C)C)c1
> 10 µM: all assays above

CC(C)Oc1cc(NC(=O)N2CCCc3ccc(C=O)nc32)ncc1C#Cc1ccc(C#N)cc1
> 10 µM: all assays above

CC(C)Oc1cc(NC(=O)N2CCCc3ccc(C=O)nc32)ncc1C#Cc1cnccn1
> 10 µM: all assays above

COc1cc(CCc2cnc(NC(=O)N3CCCc4ccc(C=O)nc43)cc2OC(C)C)cc(OC)c1
> 10 µM: all assays above

CC(C)Oc1cc(NC(=O)N2CCCc3ccc(C=O)nc32)ncc1C#Cc1ccccn1
> 10 µM: all assays above

CC(C)Oc1cc(NC(=O)N2CCCc3ccc(C=O)nc32)ncc1C#Cc1cncn1C
> 10 µM: all assays above

CC(C)Oc1cc(NC(=O)N2CCCc3ccc(C=O)nc32)ncc1C#Cc1ccncc1
> 10 µM: all assays above

O=Cc1ccc2c(n1)N(C(=O)Nc1cc(NC3CC3)c(C#Cc3ccccn3)cn1)CCC2
> 10 µM: all assays above

O=Cc1ccc2c(n1)N(C(=O)Nc1cc(F)c(C#Cc3cccnc3)cn1)CCC2
> 10 µM: all assays above

COCCNc1cc(NC(=O)N2CCCc3ccc(C=O)nc32)ncc1C#Cc1ccccn1
> 10 µM: all assays above

COc1cccc(C#Cc2cnc(NC(=O)N3CCCc4ccc(C=O)nc43)cc2OC(C)C)c1
> 10 µM: all assays above

O=Cc1ccc2c(n1)N(C(=O)Nc1cc(NC3CCCC3)c(C#Cc3ccccn3)cn1)CCC2
> 10 µM: all assays above

COc1cc(OC)c(Cl)c(C#Cc2cnc(NC(=O)N3CCCc4ccc(C=O)nc43)cc2OC(C)C)c1Cl
> 10 µM: all assays above

CC(C)CNc1cc(NC(=O)N2CCCc3ccc(C=O)nc32)ncc1C#Cc1ccccn1
> 10 µM: all assays above
